According to patent publication US5356926A, “3-alkyloxy-, aryloxy-, or arylalkyloxy-benzo [β]thiophene-2-carboxamides as inhibitors of cell adhesion” (Warner-Lambert Company, priority 1993, dated 1994):
Read-outs that look alike come from different tables or passages of the source.

How the values were obtained:
5-Lipoxygenase [1] = target: T1, 5-Lipoxygenase (Rattus norvegicus, UniProt P12527); assay: ARBL: 5-lipoxygenase (LTB4) in RBL-1 cells; type: cell-based; set-up: endogenous in cells; host or cells: RBL-1 (rat basophilic leukemia); conditions: Table 4; for inhibition at 10 µM: RBL-1, class symbol
T1 sequence (P12527 1-673): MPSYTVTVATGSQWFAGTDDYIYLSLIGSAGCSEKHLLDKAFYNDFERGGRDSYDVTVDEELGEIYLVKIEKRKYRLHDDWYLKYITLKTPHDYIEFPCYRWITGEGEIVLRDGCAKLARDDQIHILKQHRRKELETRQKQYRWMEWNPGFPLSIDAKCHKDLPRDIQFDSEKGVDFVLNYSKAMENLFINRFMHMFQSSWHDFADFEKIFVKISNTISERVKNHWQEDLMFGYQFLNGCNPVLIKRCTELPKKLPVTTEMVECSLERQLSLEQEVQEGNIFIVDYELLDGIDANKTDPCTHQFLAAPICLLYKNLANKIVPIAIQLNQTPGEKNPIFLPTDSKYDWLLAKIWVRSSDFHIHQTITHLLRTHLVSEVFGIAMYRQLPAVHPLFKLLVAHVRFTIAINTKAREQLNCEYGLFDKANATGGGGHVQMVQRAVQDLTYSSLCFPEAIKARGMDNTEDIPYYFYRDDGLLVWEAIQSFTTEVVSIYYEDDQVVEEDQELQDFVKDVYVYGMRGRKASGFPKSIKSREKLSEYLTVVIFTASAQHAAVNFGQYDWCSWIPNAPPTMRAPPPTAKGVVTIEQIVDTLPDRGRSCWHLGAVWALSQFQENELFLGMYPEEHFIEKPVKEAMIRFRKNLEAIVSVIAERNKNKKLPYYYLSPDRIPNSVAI
Description: (§1) The testing methods used are described as follows:
(§2) The rat basophilic leukemia cell line (RBL-1) was obtained from the American Type Culture Collection (Rockville, Md.).
(§3) Radioimmunoassay (RIA) kits of LTB4 and PGF2α were obtained from Arnersham (Arlington Heights, IL) and Seragen (Boston, Mass.), respectively.
(§4) All tissue culture media were obtained from GIBCO (Grand Island, N.Y.).
(§5) RBL-1 cells are grown in suspension culture in Eagle's minimum essential medium supplemented with 12% fetal bovine serum at 37° C. in an incubator supplied with air-5% carbon dioxide. Cells are harvested by centrifugation. They are washed with cold phosphate-buffered saline, pH 7.4 (PBS; NaCl, 7.1 g; Na2 HPO4, 1.15 g; KH2 PO4, 0.2 g; and KCl, 0.2 g/L). Cells are finally suspended in PBS containing 1.0 mM calcium at a density of 2×10^6 cells/mL. Cells are incubated with and without test agent (in DMSO) (1% DMSO is without effect on arachidonic acid metabolism) for 10 minutes at room temperature. Calcium ionophore A23187 (5 μM) is added and cells are incubated for 7 minutes at 37° C. The reaction is stopped by chilling the tubes on ice for 10 minutes. Cells are separated by centrifugation and the supernatant is stored at -20° C. Aliquots (100 μL) are analyzed for LTB4 and PGF2α using radioimmunoassay kits as provided by the supplier.

Cyclooxygenase = assay: ARBC: cyclooxygenase (PGF2α) in RBL-1 cells; type: cell-based, rat; conditions: Table 4, class symbol
Description: as §1, §2, §3, §4, §5

[2] = tested on: human neutrophil adhesion to TNFα, IL-1α, and LPS-stimulated human umbilical vein endothelial cells; assay: Inhibition of human neutrophil adhesion to stimulated HUVEC (51Cr-labeled neutrophils); type: cell-based
Source text: METHOD FOR DETERMINING THE INHIBITION OF HUMAN NEUTROPHIL ADHESION TO TNFα, IL-1α, AND LPS-STIMULATED HUMAN UMBILICAL VEIN ENDOTHELIAL CELLS BY 3-ALKYLOXY-, ARYLOXY-, OR ARYLALKYLOXY BENZO[b]THIOPHENE-2-CARBOXAMIDES
Neutrophils were isolated from anticoagulant-treated venous blood obtained from healthy human volunteers according to the method of Ferrante and Thong (J. Immunol. Methods 1978;24:389-93).
Second passage human umbilical vein endothelial cells (HUVEC) (Clonetics, San Diego, Calif.) were seeded into Falcon 24-well cell culture plates (Becton Dickinson, Lincoln Park, N.J.) at approximately 2×10^4 cells per well. The cells were grown to confluent monolayers in endothelial basal medium (EBM, Clonetics) supplemented with 5% fetal calf serum (Hyclone Laboratories, Logan, Utah), 10 ng/mL EGF, 1 μg/mL hydrocortisone, 0.4% bovine brain extract (Clonetics) in 5% CO2 at 37° C.
Neutrophils (30×10^6) were labeled for 60 minutes at 37° C. with 100 μCi Na^51 CrO4 (ICN Biomedicals, Costa Mesa, Calif.) in 2.0 mL Ca^2+ - and Mg^2+ -free Hanks' balanced salt solution (HBSS, GIBCO Laboratories, Grand Island, N.Y.). The cells were washed two times in HBSS and suspended in unsupplemented EBM.
Stimulation of HUVEC with tumor necrosis factor-α (TNFα) (Genzyme, Cambridge, Mass.) , interleukin (IL-1α) (Genzyrne) or E. coli 0111:B4 lipopolysaccharide (LPS) (Sigma) in the presence or absence of drug was initiated 4 hours prior to the addition of neutrophils. The suspension medium was unsupplemented EBM or supplemented EBM for studies with cytokines or LPS, respectively. […] Immediately prior to addition of ^51 Cr-labeled neutrophils to the HUVEC monolayers, the cultures were washed with 1 mL unsupplemented media to remove stimulus and/or drug. Neutrophils (5×10^5) were then added to the HUVEC in 0.5 mL unsupplemented media and incubated at 37° C. for 30 minutes. Nonadherent neutrophils were removed by aspiration. Following an additional wash, adherent neutrophils were lysed with 0.5 mL 1N NH4 OH overnight at 37° C. Lysates were collected and the radioactivity in each well was determined by gamma ray spectroscopy.

5-Lipoxygenase [3] = target: T1, 5-Lipoxygenase; assay: 5-lipoxygenase inhibition assay (20,000 xg supernatant of RBL cells); type: biochemical; set-up: activity contained in the 20,000 xg supernatant from cultured rat basophilic leukemia (RBL) cells; endogenous in cells; host or cells: RBL (rat basophilic leukemia) cells, 20,000 xg supernatant
Description: PROTOCOL FOR 5-LIPOXYGENASE INHIBITION ASSAY
Incubations contained 5% (v/v) RBL 20,000 xg supernatant in assay buffer (10 mM BES, 10 mM PIPES, 1 mM EDTA, 0.75 mM CaC12, 1 mMATP, 100 mMNaCl, pH 6.8). DMSO vehicle (2% v/v) with and without inhibitors is preincubated with the enzyme for 20 minutes at 37° C. before initiating the 5-lipoxygenase catalyzed reaction by adding […] [^14 C]arachidonic acid (55.8 mCi/mmol, New England Nuclear, Boston, Mass.) dissolved in 5 μL 0,028% (v/v) aqueous NH4 OH. After 20 minutes of additional incubation at 37° C., reactions are terminated by the addition of three volumes of methanol containing 100 μg triphenylphosphine. Samples are then analyzed by HPLC with radiometric detection for 5-1ipoxygenase reaction products.
All treatments are evaluated in duplicate and percent inhibition is computed by comparing the products formed in treatment incubations to the mean product formation in the vehicle control group.

[4] = tested on: mycobacterium footpad edema; assay: Inhibition of mycobacterium footpad edema (MFE); type: in vivo, rat; conditions: rats
Description: METHOD FOR DETERMINING THE INHIBITION OF MYCOBACTERIUM FOOTPAD EDEMA BY […]HOXY-3-([…]HYLETHOXY) BENZO[b]THIOPHENE-2-CARBOXAMIDE-1-OXIDE Mycobacterium butyricum (5 mg/mL) was prepared by sonication in paraffin oil for 10 minutes in an ice bath. Footpad edema was induced on Day 0 by injecting 0.1 mL of the Mycobacterium mixture into the left hindpaw of lightly anesthetized rats. Swelling in the injected hindpaw was determined by mercury plethysmography on Days 1, 2, and 3. Groups of rats were treated with test compounds (suspended in 0.5% hydroxypropyl methylcellulose with 0.2% Tween 80 or vehicle 1 hour before Mycobacterium injection and on Days 1 and 2. Inhibition of swelling is determined by comparing the change in hindpaw volume in compound- and vehicle-treated rats.

[5] = Table 4, class symbol, read-out: 5-LO % Inhibition at 30 μM

SMILES	inhibition at 10 µM (5-Lipoxygenase [1])	ARBC % Inhibition at 10 μM (Cyclooxygenase)	inhibition at 100 µM ([2]; Table 1, at 100 μM)	inhibition at 30 µM (5-Lipoxygenase [3]; [5])	IC50 (5-Lipoxygenase [1]; ARBL/ARBC IC50 (μM) or % inhibition at 10 μM, RBL-1 cells, A23187)	IC50 ([2]; Table 2, footnote b)	inhibition at 30 µM (5-Lipoxygenase [3]; Table 4, read-out: 5-LO % Inhibition at 30 μM)	ED40 ([4]; Mycobacterium, dosed 1 hour before injection and on Days 1 and 2, read-out: ID40 in mycobacterium footpad edema (MFE))	activity in mycobacterium footpad edema (in words) [4]	inhibition at 100 µM ([2]; Table 3, at 100 μM)
CC(C)Oc1c(C(N)=O)sc2ccccc12 [Example 2, 3-(1-methylethoxy)benzo[b]thiophene-2-carboxamide]	< 40%	N (Less than 40% inhibition at 10 μM)	60%	< 4%	–	–	–	–	–	–
COc1ccc2sc(C(N)=O)c(Oc3ccccc3)c2c1 [Example 9, 5-Methoxy-3-(phenoxy)benzo[b]thiophene-2-carboxamide]	< 40%	N (Less than 40% inhibition at 10 μM)	59%	< 4%	–	–	–	–	–	–
COc1ccc2sc(C(=O)Nc3ccc(C(=O)O)cc3)c(OC(C)C)c2c1 [Example 12, 4-[[[5-Methoxy-3-(1-methylethoxy)benzo[b]thien-2-yl]carbonyl]amino]benzoic acid]	–	–	–	–	36 µM	50 µM	16%	–	–	–
COc1ccc2c(c1)c(OC(C)C)c(C(N)=O)[s+]2[O-] (centres unmarked) [Example 28, 5-Methoxy-3-(1-methylethoxy)benzo[b]thiophene-2-carboxamide-1-oxide]	–	–	–	–	–	–	–	10.9 mg/kg	active	83%
